Broadly, the IC50 is the point on the concentration scale where inhibition reaches its midpoint.

One experiment concerns the target T1, cIAP1-BIR3 (Homo sapiens, UniProt Q13490).
T1 construct: cIAP1-BIR3; purchased Reaction Biology APT-11-370
The experiment is described as follows: cIAP1-BIR3 fluorescence polarization binding assay. The following applies: FP, probe AbuRPFK-5FAM (SM5F) 5 nM, cIAP1-BIR3 15 nM, 60 min at 25° C. From the text: (§1) IAPs are one main cause of cancer development and may result from overexpression of anti-apoptotic proteins. This protocol establishes three binding assays for […] Bir3 domain, cIAP1 and cIAP2 using FP (fluorescence polariation) technology. The fluorescence probe used is a synthetic peptide conjugated to 5-carboxyfluorescein (AbuRPFK-5FAM). The fluorescence polarization value (mP) was detected by Envision, which was used to reflect the binding degree of protein and fluorescent marker.
(§2) • a. Prepare 100 times of the final cpd concentration in appropriate tube and transfer 5 uL cpd to 45 μL 1× reaction buffer with 10% DMSO • b. The final reference cpd concentration is 10000, 3333.3, 1111.1, 370.4, 123.4, 41.2, 13.7, 4.57, 1.52, 0.51, 0.17 and 0 nM. So the 100 times of the concentration is 1000, 333.3, 111.1, 37.04, 12.34, 4.12, […], 0.15, 0.05, 0.017 and 0 μM. The final test cpds concentration is 3333.3, 1111.1, 370.4, 123.4, 41.2, 13.7, 4.57, 1.52, 0.51, 0.17, 0.057 and 0 nM. So the 100 times of the concentration is 333.3, 111.1, 37.04, 12.34, 4.12, […], 0.15, 0.05, 0.017, 0.0057 and […] • c. Add 8 μL/well each dose enzyme to 384 wen microplate (ProxiPlate-384 F Plus, 6008260) using multichannel pipette, prepared in Table 3. • d. Centrifuge at 1000 rpm • e. Add 2 μL/well cpd to 384 well microplate (ProxiPlate-384 F Plus, 6008260) using multichannel pipette, prepared in step a). • f. Centrifuge at 1000 rpm RT, 15 min. • g Start the assay by adding 10 uL/well substrate (prepared in Table 4) to the same 384 wen microplate using multichannel pipette. • h. Centrifuge at 1000 rpm. • i. Cover the assay plate and incubate for 60 min at 25° C. • j. Read on Envision 2104 for mP and plot the IC50s with mP values. • k. Data analysis: IC50s were determined based on a non-linear regression analysis of data collected.
A general note: Fluorescence polarisation rises when a labelled molecule tumbles more slowly, as on binding a larger partner.

For the next experiment, the target named is T2, XIAP-BIR3 (Homo sapiens, UniProt P98170).
T2 construct: XIAP-BIR3; purchased Reaction Biology APT-11-374
T2 sequence (P98170 241-356 limits assumed): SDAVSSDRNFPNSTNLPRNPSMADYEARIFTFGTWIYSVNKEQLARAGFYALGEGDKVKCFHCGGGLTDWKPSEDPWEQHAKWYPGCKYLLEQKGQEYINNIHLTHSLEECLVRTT
The experiment is described as follows: XIAP-BIR3 fluorescence polarization binding assay. The following applies: FP, probe AbuRPFK-5FAM (SM5F) 5 nM, XIAP-BIR3 40 nM, 60 min at 25° C.
Text: as §1, §2

The target of the next experiment is T3, cIAP2-BIR3 (Homo sapiens, UniProt Q13489).
T3 construct: cIAP2-BIR3; purchased Reaction Biology APT-11-372
T3 sequence (Q13489 238-349 limits assumed): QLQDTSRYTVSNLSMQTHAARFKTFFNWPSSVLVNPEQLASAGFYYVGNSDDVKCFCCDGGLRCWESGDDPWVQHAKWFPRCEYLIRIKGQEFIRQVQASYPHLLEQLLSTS
The experiment is described as follows: cIAP2-BIR3 fluorescence polarization binding assay. The following applies: FP, probe AbuRPFK-5FAM (SM5F) 5 nM, cIAP2-BIR3 80 nM, 60 min at 25° C.
Text: as §1, §2

Some results are limits rather than exact numbers.

T1 sequence (Q13490 253-363 limits assumed): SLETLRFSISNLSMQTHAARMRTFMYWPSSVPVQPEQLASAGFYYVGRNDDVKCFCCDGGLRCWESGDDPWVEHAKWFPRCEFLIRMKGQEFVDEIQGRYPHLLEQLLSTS

With `CN[C@@H](C)C(=O)N[C@H](C(=O)N1CCC[C@H]1C(=O)N[C@@H]1CCCc2c(OCCCCCOc3cccc4c3CCC[C@H]4NC(=O)[C@@H]3CCCN3C(=O)[C@@H](NC(=O)[C@H](C)NC)C(C)C)cccc21)C(C)C` [Compound I-G, (2S)-1-[(2S)-3-methyl-2-[(2S)-2-(methylamino)propanamido]butanoyl]-N-[(1R)-5-[(5-[[(5R)-5-[(2S)-1-[(2S)-3-methyl-2-[(2S)-2-(methylamino)propanamido]butanoyl]pyrrolidine-2-amido]-5,6,7,8-tetrahydronaphthalen-1-yl]oxy]pentyl)oxy]-1,2,3,4-tetrahydronaphthalen-1-yl]pyrrolidine-2-carboxamide], the half-maximal inhibitory concentration (IC50) on cIAP1-BIR3 lay within 1 to 10 nM; on XIAP-BIR3, 10 to 100 nM; at cIAP2-BIR3, 10 to 100 nM.
On to `CN[C@@H](C)C(=O)N[C@H](C(=O)N1CCC[C@H]1C(=O)N[C@@H]1CCCc2c(OCCOCCOc3cccc4c3CCC[C@H]4NC(=O)[C@@H]3CCCN3C(=O)[C@@H](NC(=O)[C@H](C)NC)C3CCCCC3)cccc21)C1CCCCC1` [Compound II, (2S)-1-[(2S)-2-Cyclohexyl-2-[(2S)-2-(methylamino)propanamido]acetyl]-N-[(1R)-5-[2-(2-[[(5R)-5-[(2S)-1-[(2S)-2-cyclohexyl-2-[(2S)-2-(methylamino)propanamido]acetyl]pyrrolidine-2-amido]-5,6,7,8-tetrahydronaphthalen-1-yl]oxy]ethoxy)ethoxy]-1,2,3,4-tetrahydmnaphthalen-1-yl]pyrrolidine-2-carboxamide], for which the results for the IC50 on cIAP1-BIR3, at XIAP-BIR3 and on cIAP2-BIR3 were 1 to 10 nM, 10 to 100 nM and 1 to 10 nM, respectively.
On to `CN[C@@H](C)C(=O)N[C@H](C(=O)N1CCC[C@H]1C(=O)N[C@@H]1CCCc2c(OCCOCCOc3cccc4c3CCC[C@H]4NC(=O)[C@@H]3CCCN3C(=O)[C@@H](NC(=O)[C@H](C)NC)C(C)C)cccc21)C(C)C` [Compound II-A, (2S)-1-[(2S)-3-Methyl-2-[(2S)-2-(methylamino)propanamido]butanoyl]-N-[(1R)-5-[2-(2-{[(5R)-5-[(2S)-1-[(2S)-3-methyl-2-[(2S)-2-(methylamino)propanamido]butanoyl]pyrrolidine-2-amido]-5,6,7,8-tetrahydronaphthalen-1-yl]oxy}ethoxy)ethoxy]-1,2,3,4-tetrahydronaphthalen-1-yl]pyrrolidine-2-carboxamide], for which the figures for the concentration for half-maximal inhibition (IC50) on cIAP1-BIR3, at XIAP-BIR3 and on cIAP2-BIR3 were 1 to 10 nM, 100 to 1000 nM and 1 to 10 nM, respectively.
In the case of `CN[C@@H](C)C(=O)N[C@H](C(=O)N1CCC[C@H]1C(=O)N[C@@H]1CCCc2c(OCCOCCOc3cccc4c3CCC[C@H]4NC(=O)[C@@H]3CCCN3C(=O)[C@@H](NC(=O)[C@H](C)NC)C3CCOCC3)cccc21)C1CCOCC1` [Compound II-B, (2S)-1-[(2S)-2-[(2S)-2-(Methylamino)propanamido]-2-(oxan-4-yl)acetyl]-N-[(1R)-5-[2-(2-{[(5R)-5-[(2S)-1-[(2S)-2-[(2S)-2-(methylamino)propanamido]-2-(oxan-4-yl)acetyl]pyrrolidine-2-amido]-5,6,7,8-tetrahydronaphthalen-1-yl]oxy}ethoxy)ethoxy]-1,2,3,4-tetrahydronaphthalen-1-yl]pyrrolidine-2-carboxamide], the concentration for half-maximal inhibition (IC50) on cIAP1-BIR3 was 1 to 10 nM; at XIAP-BIR3 it was 10 to 100 nM; at cIAP2-BIR3, 10 to 100 nM.
As for `CN[C@@H](C)C(=O)N[C@H](C(=O)N1CCC[C@H]1C(=O)N[C@@H]1CCCc2cc(OCCOCCOc3ccc4c(c3)CCC[C@H]4NC(=O)[C@@H]3CCCN3C(=O)[C@@H](NC(=O)[C@H](C)NC)C3CCCCC3)ccc21)C1CCCCC1` [Compound II-D, (2S)-1-[(2S)-2-cyclohexyl-2-[(2S)-2-(methylamino)propanamido]acetyl]-N-[(1R)-6-[2-(2-[[(5R)-5-[(2S)-1-1(2S)-2-cyclohexyl-2-[(2S)-2-(methylamino)propanamido]acetyl]pyrrolidine-2-amido]-5,6,7,8-tetrahydronaphthalen-2-yl]oxy]ethoxy)ethoxyl-1,2,3,4-tetrahydronaphthalen-1-yl]pyrrolidine-2-carboxamide Formic Acid], the IC50 is 1 to 10 nM at cIAP1-BIR3, over 1000 nM on XIAP-BIR3 and 10 to 100 nM on cIAP2-BIR3.
Take `CN[C@@H](C)C(=O)N[C@H](C(=O)N1CCC[C@H]1C(=O)N[C@@H]1CCc2c(OCCOCCOc3cccc4c3CC[C@H]4NC(=O)[C@@H]3CCCN3C(=O)[C@@H](NC(=O)[C@H](C)NC)C3CCCCC3)cccc21)C1CCCCC1` [Compound II-F, (2S)-1-[(2S)-2-cyclohexyl-2-[(2S)-2-(methylamino)propanamido]acetyl]-N-[(1R)-4-[2-(2-[[(1R)-1-[(2S)-1-[(2S)-2-cyclohexyl-2-[(2S)-2-(methylamino)propanamido]acetyl]pyrrolidine-2-amido]-2,3-dihydro-1H-inden-4-yl]oxy]ethoxy)ethoxy]-2,3-dihydro-1H-inden-1-yl]pyrrolidine-2-carboxamide]: the IC50 is 1 to 10 nM at cIAP1-BIR3, 10 to 100 nM at XIAP-BIR3 and 10 to 100 nM on cIAP2-BIR3.
As for `CN[C@@H](C)C(=O)N[C@H](C(=O)N1CCC[C@H]1C(=O)N[C@@H]1CCCc2c(-c3ccc(-c4cccc5c4CCC[C@H]5NC(=O)[C@@H]4CCCN4C(=O)[C@@H](NC(=O)[C@H](C)NC)C4CCCCC4)cc3)cccc21)C1CCCCC1` [Compound III, (2S)-1-[(2S)-2-Cyclohexyl-2-[(2S)-2-(methylamino)propanamido]acetyl]-N-[(1R)-5-[4-[(5R)-5-[(2S)-1-[(2S)-2-cyclohexyl-2-[(2S)-2-(methylamino)propanamido]acetyl]pyrrolidine-2-amido]-5,6,7,8-tetrahydronaphthalen-1-yl]phenyl]-1,2,3,4-tetrahydronaphthalen-1-yl]pyrrolidine-2-carboxamide], the half-maximal inhibitory concentration (IC50) on cIAP1-BIR3 was 1 to 10 nM; on XIAP-BIR3, 10 to 100 nM; at cIAP2-BIR3 it was 10 to 100 nM.
As to `CN[C@@H](C)C(=O)N[C@H](C(=O)N1CCC[C@H]1C(=O)N[C@@H]1CCCc2c(-c3ccc4cc(-c5cccc6c5CCC[C@H]6NC(=O)[C@@H]5CCCN5C(=O)[C@@H](NC(=O)[C@H](C)NC)C5CCCCC5)ccc4c3)cccc21)C1CCCCC1` [Compound III-B, (2S)-1-[(2S)-2-Cyclohexyl-2-[(2S)-2-(methylamino)propanamido]acetyl]-N-[(1R)-5-{6-[(5R)-5-[(2S)-1-[(2S)-2-cyclohexyl-2-[(2S)-2-(methylamino)propanamido]acetyl]pyrrolidine-2-amido]-5,6,7,8-tetrahydronaphthalen-1-yl]naphthalen-2-yl}-1,2,3,4-tetrahydmnaphthalen-1-yl]pyrrolidine-2-carboxamide], the IC50 at cIAP1-BIR3 lay within 1 to 10 nM; on XIAP-BIR3 it was 10 to 100 nM; on cIAP2-BIR3 it was 10 to 100 nM.
On to `CN[C@@H](C)C(=O)N[C@@H](C)C(=O)N1CCC[C@H]1C(=O)N[C@@H]1CCCc2c(-c3cccc(-c4cccc5c4CCC[C@H]5NC(=O)[C@@H]4CCCN4C(=O)[C@H](C)NC(=O)[C@H](C)NC)c3)cccc21` [Compound III-C, (2S)-1-[(2S)-2-[(2S)-2-(methylamino)propanamido]propanoyl]-N-[(1R)-5-[3-[(5R)-5-[(2S)-1-[(2S)-2-[(2S)-2-(methylamino)propanamido]propanoyl]pyrrolidine-2-amido]-5,6,7,8-tetrahydmnaphthalen-1-yl]phenyl]-1,2,3,4-tetrahydmnaphthalen-1-yl]pyrrolidine-2-carboxamide], for which the concentration for half-maximal inhibition (IC50) on cIAP1-BIR3, at XIAP-BIR3 and on cIAP2-BIR3 was 1 to 10 nM throughout.
For `CN[C@@H](C)C(=O)N[C@H](C(=O)N1CCC[C@H]1C(=O)N[C@@H]1CCCc2c(-c3cccc(-c4cccc5c4CCC[C@H]5NC(=O)[C@@H]4CCCN4C(=O)[C@@H](NC(=O)[C@H](C)NC)C(C)C)c3)cccc21)C(C)C` [Compound III-E, (2S)-1-[(2S)-3-methyl-2-[(2S)-2-(methylamino)propanamido]butanoyl]-N-[(1R)-5-[3-[(5R)-5-[(2S)-1-[(2S)-3-methyl-2-[(2S)-2-(methylamino)propanamido]butanoyl]pyrrolidine-2-amido]-5,6,7,8-tetrahydronaphthalen-1-yl]phenyl]-1,2,3,4-tetrahydronaphthalen-1-yl]pyrrolidine-2-carboxamide], the values for the IC50 on cIAP1-BIR3, at XIAP-BIR3 and at cIAP2-BIR3 were 1 to 10 nM, 1 to 10 nM and 10 to 100 nM, respectively.

These data come from US20220220152A1, “BIVALENT ANTAGONISTS OF INHIBITORS OF APOPTOSIS PROTEINS” (Hepagene Therapeutics (HK) Limited, priority 2019, published 2022).
